Values joined by “and” are separate entries in the source; they are usually repeats but may differ in a detail not shown here. Equal values may be shown once.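 All cell lines were grown in 96-well plates and treated with compound for 48 hours. Abbreviation: GI50, concentration required for 50% inhibition of growth.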 Active and inactive are the calls of the source. No stated cut-off is given here; in the data, active = GI50 up to about 1.1 µM and inactive = higher.
Experiments:
Test in all cases: NCI anticancer screen, dose series, 48 h
[1] = tested on: MDA-MB-231
[2] = tested on: NCI-H460
[3] = tested on: UO-31
[4] = tested on: HOP-92
[5] = tested on: EKVX
[6] = tested on: SK-OV-3
[7] = tested on: OVCAR-8
[8] = tested on: T47D
[9] = tested on: PC-3
[10] = tested on: RPMI-8226
[11] = tested on: SW-620
[12] = tested on: NCI-H23
[13] = tested on: U-251
[14] = tested on: UACC-257
[15] = tested on: CAKI-1
[16] = tested on: KM12
[17] = tested on: MDA-MB-435
[18] = tested on: Hs-578T
[19] = tested on: SK-MEL-28
[20] = tested on: K562

Measured: GI50

O=[N+]([O-])c1cccc([N+](=O)[O-])c1S(=O)(=O)c1ccccc1
inactive: [1] 18.2 µM | [2] 21.7 µM | [3] 1.86 µM | [4] 3.76 µM | [5] 21.2 µM | [6] 16.8 µM | [7] 2.48 µM | [8] 2.13 µM | [9] 11.9 µM | [10] 1.46 µM | [11] 2.55 µM | [12] 21.3 µM | [13] 8.95 µM | [14] 13.2 µM | [15] 2.04 µM | [16] 16.1 µM | [17] 3.61 µM | [18] 20.8 µM | [19] 4.16 µM

Cc1ncc(CO)c(CN)c1O
inactive: [1] > 100 µM | [2] > 100 µM | [3] > 100 µM | [5] > 100 µM | [6] > 100 µM | [7] > 100 µM | [8] > 100 µM | [9] > 100 µM | [10] > 100 µM | [11] > 100 µM | [12] > 100 µM | [13] > 100 µM | [14] > 100 µM | [15] > 100 µM | [16] > 100 µM | [17] > 100 µM | [20] > 100 µM | [18] > 100 µM | [19] > 100 µM

Cc1ccc2c(c1)CC1(Cc3cccc(C)c3C1=O)C2=O (configuration not stated)
inactive: [1] 19.4 µM | [2] 69.7 µM | [3] 20.9 µM | [4] 50.7 µM | [5] > 100 µM | [6] 88.5 µM | [7] > 100 µM | [8] > 10 µM | [9] > 100 µM | [10] > 100 µM | [11] > 100 µM | [12] > 100 µM | [13] > 100 µM | [14] > 100 µM | [17] > 10 µM | [20] 39.4 µM | [18] 96.8 µM | [19] > 100 µM

Cn1/c(=N\S(=O)(=O)c2ccccc2)[nH]c2ccccc21
inactive: [1] > 100 µM | [2] > 100 µM | [3] > 100 µM | [4] > 100 µM | [5] > 100 µM | [6] > 100 µM | [7] > 100 µM | [8] > 100 µM | [10] > 100 µM | [11] > 100 µM | [12] > 100 µM | [13] > 100 µM | [14] > 100 µM | [15] > 100 µM | [16] > 100 µM | [17] > 100 µM | [20] > 100 µM | [18] > 100 µM | [19] > 100 µM

O=C(O)c1ccc(C(O)(c2ccccc2)c2ccccc2)cc1
inactive: [1] > 100 µM | [3] > 100 µM | [5] > 100 µM | [6] > 100 µM | [7] > 100 µM | [8] > 100 µM | [9] > 100 µM | [10] > 100 µM | [12] > 100 µM | [13] > 100 µM | [14] > 100 µM | [15] > 100 µM | [16] > 100 µM | [17] > 100 µM | [20] > 100 µM | [18] > 100 µM | [19] > 100 µM

CCCCCCCCCCCCNC(C)=O
inactive: [1] 13.8 µM | [2] 17.7 µM | [3] 20 µM | [4] 2.26 µM | [5] 11.4 µM | [6] 15.7 µM | [7] 18.9 µM | [8] 18.9 µM | [9] 14.5 µM | [10] 13.4 µM | [11] 16.8 µM | [12] 15.7 µM | [13] 15.4 µM | [14] 23.2 µM | [15] 17 µM | [16] 17.8 µM | [17] 18.2 µM | [18] 14.4 µM | [19] 17.6 µM

CSc1nc(SC)c2c(CO)c(Br)n(Cc3ccccc3)c2n1
inactive: [1] 17.7 µM | [2] 15.7 µM | [3] 12.7 µM | [4] 17.2 µM | [5] 29.2 µM | [6] 20.2 µM | [7] 18 µM | [8] 14.9 µM | [9] 43.1 µM | [10] 92.9 µM | [11] > 100 µM | [12] 30.7 µM | [13] 12.6 µM | [15] 10 µM | [16] 70 µM | [17] > 100 µM | [18] 19.1 µM | [19] 47.9 µM

c1ccc2c(c1)ncn2C1CCCCO1 (configuration not stated)
inactive: [1] > 100 µM | [3] > 100 µM | [4] > 100 µM | [5] > 100 µM | [6] > 100 µM | [7] > 100 µM | [8] > 100 µM | [9] > 100 µM | [10] > 100 µM | [11] > 100 µM | [12] > 100 µM | [13] > 100 µM | [14] > 100 µM | [16] > 100 µM | [17] > 100 µM | [20] > 100 µM | [18] > 100 µM | [19] > 100 µM

COc1ccc(Cn2c(=O)c(OC)c(C)c3cc4ccccc4cc32)cc1
inactive: [1] 22.7 µM | [2] 17.3 µM | [3] 39.2 µM | [5] 6.55 µM | [6] 42.3 µM | [7] 27.9 µM | [8] 33.6 µM | [9] 16.1 µM | [11] 32.5 µM | [12] 22.3 µM | [13] 23 µM | [14] 2.99 µM | [15] 37.3 µM | [16] 26.5 µM | [17] 28.1 µM | [20] 28.3 µM | [18] 40.9 µM | [19] 94.6 µM

O=C(O)c1ccc(OCc2nc3cc(C(F)(F)F)ccc3nc2-c2ccccc2)cc1
inactive: [1] 56.4 µM | [2] 24.7 µM | [3] 22 µM | [4] 29 µM | [5] 55.7 µM | [7] 41.9 µM | [8] 50.7 µM | [9] 53.8 µM | [11] 53.2 µM | [12] 36.8 µM | [13] 44.2 µM | [14] 78.7 µM | [15] 5.52 µM | [16] 30.1 µM | [17] 55.2 µM | [20] 39.4 µM | [18] 43.5 µM | [19] 61 µM

Nc1ccc2nc3ccc(=O)cc-3n(-c3ccccc3)c2c1
inactive: [1] 38.7 µM | [2] > 100 µM | [3] 78.9 µM | [4] > 100 µM | [5] > 100 µM | [6] > 100 µM | [7] > 100 µM | [8] > 100 µM | [9] 91.4 µM | [10] 39.5 µM | [11] > 100 µM | [12] > 100 µM | [13] 86.3 µM | [16] 7.18 µM | [17] 66.7 µM | [20] > 100 µM | [18] 75.9 µM | [19] > 100 µM

CCNC(=O)Nc1ccccn1
inactive: [1] > 100 µM | [2] > 100 µM | [3] > 100 µM | [4] > 100 µM | [5] > 100 µM | [6] > 100 µM | [7] > 100 µM | [8] > 100 µM | [9] > 100 µM | [11] > 100 µM | [12] > 100 µM | [13] > 100 µM | [14] > 100 µM | [15] > 100 µM | [16] > 100 µM | [17] > 100 µM | [20] > 100 µM | [18] > 100 µM | [19] > 100 µM

CCOC(=O)c1cc(C2=CCNC2=O)c(-c2cc(C)no2)[nH]1
inactive: [1] 36.4 µM | [2] 63.4 µM | [3] 27.7 µM | [5] 59.4 µM | [6] 31.3 µM | [7] 45 µM | [8] 30.8 µM | [9] 55.6 µM | [10] 36.7 µM | [11] 80.2 µM | [12] > 100 µM | [13] 62.5 µM | [14] > 100 µM | [15] > 100 µM | [16] 59.8 µM | [17] > 100 µM | [20] 34.8 µM | [18] 95.5 µM | [19] 92.5 µM

C=C[C@@]1(C)CC2CC[C@]3(C)C(C)=CC(=O)CC3[C@]2(C)CC1O (some centres not stated)
inactive: [2] > 100 µM | [3] > 100 µM | [4] > 100 µM | [5] > 100 µM | [6] > 100 µM | [8] > 100 µM | [9] > 100 µM | [10] > 100 µM | [11] > 100 µM | [12] > 100 µM | [13] > 100 µM | [14] > 100 µM | [15] > 100 µM | [16] 85.3 µM | [17] > 100 µM | [20] 38 µM | [18] > 100 µM | [19] > 100 µM

NC1=NC(=O)/C(=C2\CCNC(=O)c3[nH]c(Br)cc32)N1 [HYMENIALDISINE]
inactive: [1] 4.66 µM | [2] 65.6 µM | [3] 3.02 µM and 5.6 µM | [4] 29.2 µM and 40.8 µM | [5] > 100 µM and > 71.3 µM | [7] 7.21 µM and 10.5 µM | [8] 7.87 µM | [9] 56.6 µM | [12] 80.9 µM and 52.7 µM | [13] 26.4 µM and 18.6 µM | [14] 23.7 µM and 18.3 µM | [17] 5.58 µM | [20] 3.85 µM and 4.1 µM | [18] 38.6 µM | [19] 7.74 µM and 13.8 µM
